System: HEY cells
Assay: sensitivity of transfected HEY cells to cisplatin
Assay type: cell-based, human
Conditions: cisplatin 0.1-50 μM
Protocol: Cultures of the mesenchymal HEY cells were transfected with a negative control (NC) miRNA or miR-429 using Lipofectamine 2000 (Invitrogen) and treated with increasing concentrations of cisplatin. (0.1, 0.5, 1, 3, 5, 7, 10, 15, 20, 30, 50 μM).

Compound: N.N.[Cl][Pt][Cl] [cisplatin]
- IC50 (HEY cells transfected with miR-429): 4.6 µM
- IC50 (HEY cells transfected with negative control (NC) miRNA): 8.7 µM
